Laboratory results taken from patent US8101550B2, “Anthranilic acid diamide derivative with hetero-aromatic and hetero-cyclic substituents” (Bayer Cropscience AG, priority 2006, dated 2012).

Tests used:
[1] = log P determination by HPLC on reverse-phase column (EEC Directive 79/831 Annex V.A8); format: physicochemical; details: HPLC on reverse-phase column
How it was run: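 Reverse-phase C18 HPLC at 43 °C, following EEC Directive 79/831 Annex V.A8. Acidic LC-MS used pH 2.7 eluents (0.1% aqueous formic acid and acetonitrile with 0.1% formic acid) on a 10–95% acetonitrile linear gradient. Log P was interpolated linearly from retention times against unbranched C3–C16 alkan-2-ones of known log P.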

[2] = system: caterpillars of the armyworm (Spodoptera frugiperda); assay: Spodoptera frugiperda test (cabbage leaves, immersion); format: in vivo; details: cabbage leaves immersed
Protocol: (§1) An appropriate preparation of active compound is prepared by mixing 1 part by weight of active compound with the stated amounts of solvent and emulsifier and diluting the concentrate with emulsifier-containing water to the desired concentration.
Cabbage leaves (Brassica oleracea) are treated by immersion into a preparation of active compound at the desired concentration and, are populated with caterpillars of the armyworm (Spodoptera frugiperda) while the leaves are still wet.
After the desired time the effect in % is determined. 100% means that all of the caterpillars have been killed; 0% means that no caterpillars have been killed.
Cabbage leaves (Brassica oleracea) are treated by immersion into a preparation of active compound at the desired concentration and are populated with caterpillars of the armyworm (Spodoptera frugiperda) while the leaves are still wet.

[3] = system: larvae of the leafminer fly (Liriomyza trifolii); assay: Liriomyza trifolii test; format: in vivo; details: 500 ppm; infested bean leaf discs sprayed
Protocol: as §1
Bean leaf discs (Phaseolus vulgaris) infested by larvae of the leafminer fly (Liriomyza trifolii) are sprayed with a preparation of active compound at the desired concentration.
After the desired time the effect in % is determined. 100% means that all of the leafminer flies have been killed; 0% means that no leafminer flies have been killed.

Heliothis virescens eggs = assay: Heliothis virescens test; format: in vivo; details: 300 ppm; eggs treated
Protocol: (§2) An appropriate preparation of active compound is prepared by mixing the active compound with the stated amounts of solvent and diluting the concentrate with […] water to the desired concentration.
The Heliothis virescens eggs are treated with a preparation of active compound at the desired concentration.
(§3) After the desired time the effect in % is determined. 100% means that all of the eggs/larvae have been killed; 0% means that no eggs/larvae have been killed.

Myzus persicae = Myzus persicae test; format: in vivo; details: 30 ppm; preparation provided for consumption
Protocol: as §2
The Myzus persicae is provided with a preparation of active compound at the desired concentration for consumption.
After the desired time the effect in % is determined. 100% means that all of the aphids have been killed; 0% means that no aphids have been killed.

Aedes aegypti larvae = assay: Aedes aegypti test; format: in vivo; details: 30 ppm; larvae treated
Protocol: as §2
The Aedes aegypti larvae are treated with a preparation of active compound at the desired concentration.
After the desired time the effect in % is determined. 100% means that all of the Aedes aegypti have been killed; 0% means that no Aedes aegypti have been killed.

[4] = system: Diabrotica undecimpunctata eggs; assay: Diabrotica undecimpunctata test; format: in vivo; details: 300 ppm; eggs treated
Protocol: as §2
The Diabrotica undecimpunctata eggs are treated with a preparation of active compound at the desired concentration.
as §3

| Compound | logP [1] | Kill level after 7 d in % ([2]; 100 g/ha) | further results |
| --- | --- | --- | --- |
| CNC(=O)c1cc(Cl)cc(C)c1NC(=O)c1cc(Cn2cc(C(F)(F)C(F)(F)F)c(C(F)(F)C(F)(F)F)n2)nn1-c1ncccc1Cl [I-1-3] | 4.39 | 100% | Kill level after 7 d in % ([2]; 0.8 g/ha): 100%; Kill level after 7 d in % [3]: 98% |
| CNC(=O)c1cc(Cl)cc(C)c1NC(=O)c1cc(Cn2cc(Cl)cn2)nn1-c1ncccc1Cl [I-1-4] | 2.54 | 100% | Kill level after 7 d in % [3]: 95% |
| Cc1cc(Cl)cc(C(=O)NC(C)C)c1NC(=O)c1cc(Cn2cc(C(F)(F)C(F)(F)F)c(C(F)(F)C(F)(F)F)n2)nn1-c1ncccc1Cl [I-1-12] | 4.89 | 100% | – |
| Cc1cc(Br)cc(C(=O)NC(C)C)c1NC(=O)c1cc(Cn2cc(C(F)(F)C(F)(F)F)c(C(F)(F)C(F)(F)F)n2)nn1-c1ncccc1Cl [I-1-13] | 4.98 | 100% | Kill level after 6-7 d in % (Heliothis virescens eggs): 100%; Kill level after 6-7 d in % (Myzus persicae): 100%; Kill level after 2-4 d in % (Aedes aegypti larvae): 100%; Kill level after 2-5 d in % [4]: 100% |
| Cc1cc(Cl)cc(C(=O)NC(C)C)c1NC(=O)c1cc(Cn2cc(I)c(C(F)(F)C(F)(F)F)n2)nn1-c1ncccc1Cl [I-1-14] | 4.29 | 100% | Kill level after 6-7 d in % (Heliothis virescens eggs): 100%; Kill level after 6-7 d in % (Myzus persicae): 100%; Kill level after 2-4 d in % (Aedes aegypti larvae): 100%; Kill level after 2-5 d in % [4]: 100% |
| Cc1cc(Cl)cc(C(=O)NC(C)C)c1NC(=O)c1cc(Cn2cc(Cl)c(C(F)(F)F)n2)nn1-c1ncccc1Cl [I-1-15] | 3.85 | 100% | Kill level after 6-7 d in % (Heliothis virescens eggs): 100%; Kill level after 6-7 d in % (Myzus persicae): 100%; Kill level after 2-4 d in % (Aedes aegypti larvae): 100%; Kill level after 2-5 d in % [4]: 100% |
| CNC(=O)c1cc(Cl)cc(C)c1NC(=O)c1cc(Cn2cc(I)c(C(F)(F)C(F)(F)F)n2)nn1-c1ncccc1Cl [I-1-16] | 3.79 | 100% | – |
| CNC(=O)c1cc(Cl)cc(C)c1NC(=O)c1cc(Cn2cc(Cl)c(C(F)(F)F)n2)nn1-c1ncccc1Cl [I-1-17] | 3.35 | 100% | – |
| Cc1cc(Cl)cc(C(=O)NC(C)C)c1NC(=O)c1cc(Cn2ccc(C(F)(F)C(F)(F)F)n2)nn1-c1ncccc1Cl [I-1-18] | 3.75 | 100% | – |
| CNC(=O)c1cc(Cl)cc(C)c1NC(=O)c1cc(Cn2ccc(C(F)(F)C(F)(F)F)n2)nn1-c1ncccc1Cl [I-1-19] | 3.29 | 100% | – |
| Cc1cc(Br)cc(C(=O)NC(C)C)c1NC(=O)c1cc(Cn2nc(C(F)(F)F)cc2C(F)(F)F)nn1-c1ncccc1Cl [I-1-20] | 4.16 | 100% | – |
| Cc1cc(Cl)cc(C(=O)NC(C)C)c1NC(=O)c1cc(Cn2cncn2)nn1-c1ncccc1Cl [I-1-21] | 2.02 | 100% | – |
| Cc1cc(Br)cc(C(=O)NC(C)C)c1NC(=O)c1cc(Cn2nc(C(F)(F)F)nc2C(F)(F)F)nn1-c1ncccc1Cl [I-1-22] | 3.91 | 100% | Kill level after 7 d in % ([2]; 4 g/ha): 100%; Kill level after 7 d in % [3]: 98% |
| Cc1cc(Cl)cc(C(=O)NC(C)C)c1NC(=O)c1cc(Cn2nc(C(F)(F)C(F)(F)F)nc2C(F)(F)F)nn1-c1ncccc1Cl [I-1-23] | 4.25 | 100% | – |
| CNC(=O)c1cc(Br)cc(C)c1NC(=O)c1cc(Cn2nc(C(F)(F)C(F)(F)F)cc2C(F)(F)C(F)(F)F)nn1-c1ncccc1Cl [I-1-24] | 4.49 | 100% | – |
| CNC(=O)c1cc(Br)cc(C)c1NC(=O)c1cc(Cn2cc(C(F)(F)C(F)(F)F)c(C(F)(F)C(F)(F)F)n2)nn1-c1ncccc1Cl [I-1-25] | 4.39 | 100% | – |
| CNC(=O)c1cc(Cl)cc(C)c1NC(=O)c1cc(Cn2nc(C(F)(F)C(F)(F)F)nc2C(F)(F)C(F)(F)F)nn1-c1ncccc1Cl [I-1-26] | 4.17 | 100% | – |
| CNC(=O)c1cc(Cl)cc(C)c1NC(=O)c1cc(Cn2nc(C(F)(F)C(F)(F)F)cc2C(F)(F)C(F)(F)F)nn1-c1ncccc1Cl [I-1-27] | 4.45 | – | Kill level after 7 d in % ([2]; 20 g/ha): 83% |
| Cc1cc(Cl)cc(C(=O)NC(C)C)c1NC(=O)c1cc(Cn2nc(C(F)(F)C(F)(F)F)c(C(F)(F)F)c2F)nn1-c1ncccc1Cl [I-1-28] | 4.63 | 100% | – |
| Cc1cc(Cl)cc(C(=O)NC(C)C)c1NC(=O)c1cc(Cn2nc(C(F)(F)C(F)(F)F)nc2C(F)(F)C(F)(F)F)nn1-c1ncccc1Cl [I-1-29] | 4.64 | 100% | – |
| CNC(=O)c1cc(Cl)cc(C)c1NC(=O)c1cc(Cn2cc(Cl)c(C(F)(F)C(F)(F)F)n2)nn1-c1ncccc1Cl [I-1-30] | 3.77 | 100% | – |
| Cc1cc(Cl)cc(C(=O)NC(C)C)c1NC(=O)c1cc(Cn2cc(Cl)c(C(F)(F)C(F)(F)F)n2)nn1-c1ncccc1Cl [I-1-31] | 4.21 | 100% | – |
| Cc1cc(Cl)cc(C(=O)NCC#N)c1NC(=O)c1cc(Cn2cc(Cl)c(C(F)(F)C(F)(F)F)n2)nn1-c1ncccc1Cl [I-1-32] | 3.70 | 100% | – |
| Cc1cc(Br)cc(C(=O)NCC#N)c1NC(=O)c1cc(Cn2cc(C(F)(F)C(F)(F)F)c(C(F)(F)C(F)(F)F)n2)nn1-c1ncccc1Cl [I-1-33] | 4.28 | 100% | – |
| CNC(=O)c1cc(Cl)cc(C)c1NC(=O)c1cc(Cn2cc(Br)c(C(F)(F)C(F)(F)F)n2)nn1-c1ncccc1Cl [I-1-34] | 3.80 | 100% | – |
| CNC(=O)c1cc(Cl)cc(C)c1NC(=O)c1cc(Cn2nc(C(F)(F)F)nc2C(F)(F)F)nn1-c1ncccc1Cl [I-1-35] | 3.43 | 100% | – |
| CNC(=O)c1cc(Br)cc(C)c1NC(=O)c1cc(Cn2nc(C(F)(F)F)nc2C(F)(F)F)nn1-c1ncccc1Cl [I-1-36] | 3.52 | 100% | – |
| Cc1cc(Br)cc(C(=O)NC(C)C)c1NC(=O)c1cc(Cn2nc(C(F)(F)C(F)(F)F)nc2C(F)(F)C(F)(F)F)nn1-c1ncccc1Cl [I-1-37] | 4.73 | 100% | – |
| CNC(=O)c1cc(Br)cc(C)c1NC(=O)c1cc(Cn2nc(C(F)(F)C(F)(F)F)nc2C(F)(F)C(F)(F)F)nn1-c1ncccc1Cl [I-1-39] | 4.31 | 100% | – |
| Cc1cc(Cl)cc(C(=O)NC(C)C)c1NC(=O)c1cc(Cn2nc(C(F)(F)F)nc2C(F)(F)F)nn1-c1c(Cl)cccc1Cl [I-1-40] | 4.58 | 100% | – |
